Data set [1] is described as follows: Oxidation potential of dye (vs SCE). Type of data set: physicochemical. The following applies: comparative dyes; method not stated. The procedure: The value of oxidation potential (Eox) can be easily measured by those skilled in the art.
In some detail, for the measurement of oxidation potential, the test specimen is dissolved in a solvent such as dimethyl formamide and acetonitrile containing a supporting electrolyte such as sodium perchlorate and tetrapropylammonium perchlorate in a concentration of from […] to 1×10^−6 mol/l. The solution is then measured for oxidation potential with respect to SCE (saturated calomel electrode) by cyclic voltametry or DC polarography, etc. This value may deviate by a few tens of millivolts when affected by the difference in potential between liquids or the resistivity of sample solution, but the reproducibility of potential can be assured by putting a standard sample (e.g., hydroquinone) in the sample solution.
In order to unequivocally define oxidation potential, in the present invention, the value (vs SCE) measured in dimethyl formamide containing 0.1 mol dm^−3 of tetrapropylammonium perchlorate as a supporting electrolyte (dye concentration: 0.001 mol dm^−3) is defined as oxidation potential of dye.

Data set [2] is described as follows: Absorption spectrum of dye. Type of data set: physicochemical. The following applies: comparative dyes; ratio as printed. An excerpt: To this end, the dye to be used in the invention preferably is a yellow dye having a λmax at a wavelength range of from 390 nm to 470 nm and a I(λmax+70 nm)/I(λmax) ratio of not greater than 0.2, more preferably not greater than 0.1 in which I(λmax) is the absorbance at λmax and I(λmax+70 nm) is the absorbance at λmax+70 nm. Ideally speaking, the lower limit of the ratio is 0. In actuality, however, the lower limit of the ratio is about 0.01.

With `Cc1nn(-c2ccc(S(=O)(=O)[O-])cc2)c(O)c1/N=N/c1cccc(S(=O)(=O)Nc2cc(C(=O)[O-])cc(C(=O)[O-])c2)c1.[K+].[K+].[K+]` [Yellow dye (C)], in data set [1], the oxidation potential was ≤ 1.0 V (vs SCE). In addition, the “I(λmax)/I(λmax+70 nm) ratio” value in data set [2] was no more than 0.4.

Direct Yellow 11 [Yellow dye (D)]: in data set [1], the oxidation potential is ≤ 1.0 V (vs SCE). For the same compound, in data set [2], the “I(λmax)/I(λmax+70 nm) ratio” value was “greater than 0.4”.

(Values after patent publication US7370953B2, “Inkjet recording ink” (FUJIFILM Corporation, priority 2003, dated 2008).)
